Results published in publication PMC5462828 (Scientific Reports, 2017).
“Also recorded” adds a separate entry of the source.

Columns and labels:
[1] = test system: T1, RXFP1 and Gαs; assay: Real-time kinetic BRET, RXFP1-Rluc8 / Gαs; type: cell-based, human; conditions: HEK293T co-expressing RXFP1-Rluc8, Gγ2-Venus, Gβ1, Gαs; H2 relaxin 100 nM, ML290 100 nM or 10 μM
T1 construct: forward primer encodes M-D-S-K-G-S-S, not the native RXFP1 start (N); expressed in transfected cells; host or cells: HEK293T cells stably expressing RXFP1-Rluc8, transiently co-transfected with the G protein subunits
Method: (§1) HEK293 cell were seeded in 6-well plates at a density of 600,000 cells per well and transfected with constructs encoding the tagged receptors and signalling proteins. 24 h later cells were harvested in HEPES-buffered phenol red-free medium containing 5% FBS and plated out in a white 96-well plate (Nunc) that was incubated at 37 °C under 5% CO2. BRET assays were performed 48 h after transfection as described previously, [52]. Medium was replaced with phenol-red-free-DMEM supplemented with 5% FBS plus 5 μM coelenterazine h. BRET measurements were made at 37 °C using the PHERAstar Omega plate reader with Omega software (BMG LABTECH, Germany). Filtered light emissions were simultaneously measured in each of the “donor wavelength window” (475 ± 15 nm for Rluc8 with coelenterazine h) and “acceptor wavelength window” (535 ± 15 nm for Venus). Cells were assayed before and after treatment with ligands or 5% FBS phenol-red-free-DMEM medium containing 0.01% w/v BSA (vehicle). The BRET signal was calculated as previously described.

[2] = test system: T2, RXFP1 and GαoB; assay: Real-time kinetic BRET, RXFP1-Rluc8 / GαoB; type: cell-based, human; conditions: HEK293T co-expressing RXFP1-Rluc8, Gγ2-Venus, Gβ1, GαoB; H2 relaxin 100 nM, ML290 100 nM or 10 μM
T2 construct: forward primer encodes M-D-S-K-G-S-S, not the native RXFP1 start (N); expressed in transfected cells; host or cells: HEK293T cells stably expressing RXFP1-Rluc8, transiently co-transfected with the G protein subunits
Method: as §1

[3] = test system: RXFP1; assay: ERK1/2 phosphorylation (Surefire) in human primary vascular cells and cardiac fibroblasts; type: cell-based; conditions: HUAEC
Method: (§2) p-ERK1/2, p-p38MAPK and p-JNK1/2 was measured using the Surefire ERK, p38 and JNK kits (TGR BioSciences, Australia) as described previously, [16]. Briefly, HEK-RXFP1 cells were plated into 96-well plates (5 × 10^4 cells/well) and primary cells grown in 24-well plates (1 × 10^5 cells/well) overnight to achieve a confluent monolayer. Prior to stimulation, HEK293 cells were serum-starved with DMEM containing 0.5% (v/v) FBS and primary cells in M199 medium for 4–6 hours. […] Levels of p-ERK1/2, p-p38MAPK and p-JNK1/2/3 were detected as per manufacturer’s instructions (Perkin-Elmer, Australia).

[4] = target: T3, RXFP1 (Homo sapiens, UniProt Q9HBX9); assay: cAMP accumulation in human primary vascular cells and cardiac fibroblasts; type: cell-based; conditions: for Emax: 30 min
T3 sequence (Q9HBX9 1-757): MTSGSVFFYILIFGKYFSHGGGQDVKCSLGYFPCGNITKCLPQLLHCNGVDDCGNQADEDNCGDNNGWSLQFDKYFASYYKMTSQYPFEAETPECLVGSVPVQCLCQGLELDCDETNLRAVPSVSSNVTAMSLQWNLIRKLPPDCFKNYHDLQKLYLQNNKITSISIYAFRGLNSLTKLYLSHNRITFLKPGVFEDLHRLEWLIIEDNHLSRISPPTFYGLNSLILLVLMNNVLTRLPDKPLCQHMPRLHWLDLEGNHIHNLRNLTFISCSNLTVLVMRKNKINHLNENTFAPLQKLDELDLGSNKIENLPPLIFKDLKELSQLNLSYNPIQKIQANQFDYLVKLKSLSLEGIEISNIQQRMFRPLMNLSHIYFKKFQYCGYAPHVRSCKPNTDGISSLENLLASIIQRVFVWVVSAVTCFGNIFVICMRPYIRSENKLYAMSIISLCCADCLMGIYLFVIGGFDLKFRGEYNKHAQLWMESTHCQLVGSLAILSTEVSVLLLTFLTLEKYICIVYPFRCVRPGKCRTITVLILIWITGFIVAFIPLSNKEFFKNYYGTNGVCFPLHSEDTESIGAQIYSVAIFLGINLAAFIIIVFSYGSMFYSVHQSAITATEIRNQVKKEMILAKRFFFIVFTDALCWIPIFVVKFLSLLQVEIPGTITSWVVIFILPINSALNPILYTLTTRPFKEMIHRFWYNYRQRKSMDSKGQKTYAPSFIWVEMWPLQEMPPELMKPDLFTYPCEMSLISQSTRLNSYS
Method: (§3) cAMP and cGMP accumulation was determined as previously described, [16]. Briefly, HEK293 cells were plated in 96-well plates (5 × 10^4 cells/well) and human primary cells were plated into 24-well plates (1 × 10^5 cells/well) and grown overnight to achieve a confluent monolayer. Prior to stimulation, HEK cells were serum-starved in DMEM containing 0.5% FBS v/v and primary cells were serum-starved in M199 medium for 4–6 hours. Where appropriate, cells were pre-incubated with mSIRK (5 μM, 30 min), mSIRK control peptide L9A (5 μM, 30 min), gallein (100 μM, 30 min), Wortmannin (100 nM, 30 min), NF023 (10 μM, 30 min) and NF449 (10 μM, 30 min). Levels of cAMP and cGMP were detected according to the manufacturer’s instructions (Perkin-Elmer, Australia).

[5] = test system: RXFP1; assay: as above; type: cell-based; conditions: HUAEC, cells known not to express cell surface RXFP1; 30 min
Method: as §3

[6] = test system: p-Smad3; assay: Smad3 phosphorylation assay in human cardiac fibroblasts; type: cell-based; conditions: 72 hours
Method: Cells were serum-starved in M199 medium for 24 hours prior sample collection. Cells were used between passages 1–4, while all experiments were performed four separate times in duplicate. Levels of p-Smad2 and p-Smad3 were detected using Sure-fire kits according to the manufacturer’s instructions (Perkin-Elmer, Australia).

[7] = target: T3, RXFP1; assay: p38MAPK phosphorylation (Surefire) in human primary vascular cells; type: cell-based; design: In human primary vascular endothelial and smooth muscle cells that endogenously express RXFP1; conditions: 15 min
Method: as §2

[8] = target: T3, RXFP1; assay: 125I-H2 relaxin radioligand binding in HEK-RXFP1 cells; design: expressed in transfected cells; host or cells: HEK293T / HEK293 cells stably expressing RXFP1 (HEK-RXFP1)
Method: Competition radioligand binding studies were performed in HEK-RXFP1 cells as described previously. […] After 90 min incubation at room temperature, the reaction was terminated with the removal of medium and washing with cold PBS. Cells were digested with 0.1 M NaOH and radioactivity counted on the γ-counter.

For CC(C)Oc1ccccc1C(=O)Nc1ccccc1C(=O)Nc1cccc(S(=O)(=O)C(F)(F)F)c1 [ML290, 2-Isopropoxy-N-(2-(3-(trifluoromethylsulfonyl)phenylcarbamoyl)phenyl) benzamide], the “ligand-induced BRET, RXFP1 - Gαs interaction” value [1] was “promoted interactions”, the “ligand-induced BRET, RXFP1 - GαoB interaction” value [2] was “promoted interactions; also recorded: moved in the opposite direction to that to H2 relaxin” and the ERK1/2 phosphorylation [3] was “did not cause ERK1/2 phosphorylation”. For the same compound, the Emax ([4]; HUVEC, read-out: cAMP accumulation efficacy (Emax), HUVEC) was 11.7%, the “potency for cAMP accumulation, less potent than H2 relaxin” value ([4]; human primary vascular cells) was 3 orders of magnitude and the Emax ([4]; read-out: cAMP accumulation efficacy (Emax), HCAEC) was 17.9%. The Emax ([4]; read-out: cAMP accumulation efficacy (Emax), HUASMC) was 11.9%, the cAMP accumulation [5] was “did not cause cAMP accumulation” and the “effect on p-Smad3 levels” value ([6]; HCFs not treated with TGF-β1, H2 relaxin 0.1 μM, ML290 1 μM) was “neither H2 relaxin (0.1 μM) nor ML290 (1 μM) significantly affected”. The “p-Smad3 in TGF-β1-stimulated cells” value ([6]; HCFs, TGF-β1 2 ng/ml + H2 relaxin 0.1 μM or ML290 1 μM) was 1.15 ± 0.05 fold/basal, the Emax ([7]; read-out: p-p38MAPK efficacy (Emax), HUASMC) was 4.4% and the Emax ([7]; read-out: p-p38MAPK efficacy (Emax), HUVSMC) was 2.7%. The “125I-H2 relaxin specific binding to RXFP1 in presence of ML290” value ([8]; 125I-H2 relaxin 100pM, increased from 102.7 ± […]) was 135.2 ± 6.5% and the “effect on the affinity of H2 relaxin” value ([8]; ML290 1 μM) was “no significant effect”.
